Assay results: ChEMBL document CHEMBL5584245, “Structure-activity relationship of dual inhibitors containing maleimide and imidazole motifs against glutaminyl cyclase and glycogen synthase kinase-3β” (Bioorg Med Chem Lett, 2024)

Experiments:
[1] = target: Glutaminyl-peptide cyclotransferase (Homo sapiens, UniProt Q16769); test: Inhibition of glutaminyl cyclase (unknown origin)
[2] = target: Glycogen synthase kinase-3 beta (Homo sapiens, UniProt P49841); test: Inhibition of GSK-3beta (unknown origin)
Chain of Glycogen synthase kinase-3 beta (P49841 whole entry): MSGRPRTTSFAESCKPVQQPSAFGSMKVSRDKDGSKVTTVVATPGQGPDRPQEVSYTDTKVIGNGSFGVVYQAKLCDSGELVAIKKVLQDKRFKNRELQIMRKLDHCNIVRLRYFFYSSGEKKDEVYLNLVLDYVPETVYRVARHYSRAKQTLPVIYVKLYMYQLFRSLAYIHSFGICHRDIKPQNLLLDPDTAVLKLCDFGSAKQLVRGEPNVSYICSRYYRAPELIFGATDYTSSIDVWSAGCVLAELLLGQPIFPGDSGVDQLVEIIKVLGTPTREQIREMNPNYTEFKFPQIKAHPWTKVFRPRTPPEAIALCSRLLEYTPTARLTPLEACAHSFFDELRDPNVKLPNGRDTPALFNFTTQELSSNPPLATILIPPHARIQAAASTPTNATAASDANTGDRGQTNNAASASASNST

Chain of Glutaminyl-peptide cyclotransferase (Q16769 whole entry): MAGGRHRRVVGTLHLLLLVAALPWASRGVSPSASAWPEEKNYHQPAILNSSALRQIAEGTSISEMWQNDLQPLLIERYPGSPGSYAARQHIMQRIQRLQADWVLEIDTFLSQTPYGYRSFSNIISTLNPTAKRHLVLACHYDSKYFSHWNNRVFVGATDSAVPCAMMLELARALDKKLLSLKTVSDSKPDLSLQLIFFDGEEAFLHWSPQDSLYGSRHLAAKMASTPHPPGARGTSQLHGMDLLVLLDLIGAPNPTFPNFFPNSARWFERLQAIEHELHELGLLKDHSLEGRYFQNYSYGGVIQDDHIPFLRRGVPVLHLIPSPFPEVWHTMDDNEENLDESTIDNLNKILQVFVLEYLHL

Row | Structure (SMILES) | IC50 [1] | IC50 [2]
1 | Cc1cncn1CCCn1cc(C2=C(c3ccccc3F)C(=O)NC2=O)c2ccccc21 | 2760 nM | 29 nM
2 | Cc1cncn1CCCn1cc(C2=C(c3ccc(OCCCN4CCCCC4)cc3)C(=O)NC2=O)c2ccccc21 | 1120 nM | 87 nM
3 | Cc1ccccc1C1=C(c2cn(CCCn3cncc3C)c3ccccc23)C(=O)NC1=O | 1760 nM | 59 nM
4 | Cc1cncn1CCCn1cc(C2=C(c3cc(F)c(F)cc3F)C(=O)NC2=O)c2ccccc21 | 2600 nM | 122 nM
5 | Cc1cncn1CCCn1cc(C2=C(c3ccc(OCCCCN4CCCC4)cc3)C(=O)NC2=O)c2ccccc21 | 1080 nM | 93 nM
6 | Cc1cncn1CCCn1cc(C2=C(c3ccc(OCCCCN4CCN(C)CC4)cc3)C(=O)NC2=O)c2ccccc21 | 3240 nM | 15 nM
7 | Cc1cncn1CCCn1cc(C2=C(c3ccc(OCCCN4CCCC4)cc3)C(=O)NC2=O)c2ccccc21 | 3920 nM | 162 nM
8 | Cc1cncn1CCCn1cc(C2=C(c3ccc(OCCCCN4CCOCC4)cc3)C(=O)NC2=O)c2ccccc21 | 2210 nM | 57 nM
9 | Cc1cncn1CCCn1cc(C2=C(c3ccc(OCCCN4CCOCC4)cc3)C(=O)NC2=O)c2ccccc21 | 1510 nM | 178 nM
10 | Cc1cncn1CCCn1cc(C2=C(c3cccc([N+](=O)[O-])c3)C(=O)NC2=O)c2ccccc21 | 6130 nM | 47 nM
11 | Cc1cncn1CCCn1cc(C2=C(c3ccc(OCCCCN4CCCCC4)cc3)C(=O)NC2=O)c2ccccc21 | 2200 nM | 68 nM
12 | Cc1cncn1CCCn1cc(C2=C(c3ccc([N+](=O)[O-])cc3)C(=O)NC2=O)c2ccccc21 | 1890 nM | 161 nM
13 | Cc1cncn1CCCn1cc(C2=C(c3ccccc3[N+](=O)[O-])C(=O)NC2=O)c2ccccc21 | 1220 nM | 2 nM
14 | Cc1cncn1CCCn1cc(C2=C(c3ccc(F)cc3)C(=O)NC2=O)c2ccccc21 | 3220 nM | 102 nM
15 | Cc1cncn1CCCn1cc(C2=C(c3ccc(OCCCN4CCN(C)CC4)cc3)C(=O)NC2=O)c2ccccc21 | 1300 nM | 74 nM
16 | Cc1cncn1CCCn1cc(C2=C(c3cccc(F)c3)C(=O)NC2=O)c2ccccc21 | 10800 nM | 64 nM

Next, values leading:

Row | IC50 [1] | IC50 [2] | Structure (SMILES)
17 | 6320 nM | 55 nM | COc1cccc(C2=C(c3cn(CCCn4cncc4C)c4ccccc34)C(=O)NC2=O)c1
18 | 15000 nM | 104 nM | Cc1cncn1CCCn1cc(C2=C(c3ccc(OCCCn4ccnc4)cc3)C(=O)NC2=O)c2ccccc21
19 | 6990 nM | 192 nM | Cc1cncn1CCCn1cc(C2=C(c3ccc(OCCCCc4ccccc4)cc3)C(=O)NC2=O)c2ccccc21
20 | 26200 nM | 91 nM | COc1cc(C2=C(c3cn(CCCn4cncc4C)c4ccccc34)C(=O)NC2=O)ccc1OCCCCc1ccccc1
21 | 18100 nM | 177 nM | COc1cc(C2=C(c3cn(CCCn4cncc4C)c4ccccc34)C(=O)NC2=O)ccc1OCCCc1ccccc1
22 | 2300 nM | 14 nM | Cc1cncn1CCCn1cc(C2=C(c3ccccc3)C(=O)NC2=O)c2ccccc21
23 | 20000 nM | 150 nM | CCCOc1ccc(C2=C(c3cn(CCCn4cncc4C)c4ccccc34)C(=O)NC2=O)cc1
24 | 1710 nM | 23 nM | COc1ccccc1C1=C(c2cn(CCCn3cncc3C)c3ccccc23)C(=O)NC1=O
25 | 11200 nM | 133 nM | Cc1cncn1CCCn1cc(C2=C(c3ccc(OCCCCn4ccnc4)cc3)C(=O)NC2=O)c2ccccc21
26 | 9550 nM | 197 nM | Cc1cncn1CCCn1cc(C2=C(c3ccc(OCCCN4CCN(c5ccccc5)CC4)cc3)C(=O)NC2=O)c2ccccc21
27 | 4590 nM | 36 nM | COc1ccc(C2=C(c3cn(CCCn4cncc4C)c4ccccc34)C(=O)NC2=O)cc1OC
28 | 1130 nM | 51 nM | COc1cc(C2=C(c3cn(CCCn4cncc4C)c4ccccc34)C(=O)NC2=O)ccc1OCCCN1CCCCC1
29 | 13000 nM | 59 nM | COc1cc(C2=C(c3cn(CCCn4cncc4C)c4ccccc34)C(=O)NC2=O)ccc1OCCCCN1CCOCC1
30 | 6230 nM | 103 nM | Cc1cccc(C2=C(c3cn(CCCn4cncc4C)c4ccccc34)C(=O)NC2=O)c1
31 | 830 nM | 64 nM | COc1cc(C2=C(c3cn(CCCn4cncc4C)c4ccccc34)C(=O)NC2=O)ccc1OCCCCN1CCCCC1
32 | 7970 nM | 182 nM | Cc1cncn1CCCn1cc(C2=C(c3ccc(OCCCc4ccccc4)cc3)C(=O)NC2=O)c2ccccc21
33 | 7020 nM | 89 nM | COc1cc(C2=C(c3cn(CCCn4cncc4C)c4ccccc34)C(=O)NC2=O)ccc1OCCCN1CCOCC1
34 | 7630 nM | 200 nM | Cc1cncn1CCCn1cc(C2=C(c3ccc(OCCCCN4CCN(c5ccccc5)CC4)cc3)C(=O)NC2=O)c2ccccc21
35 | 10200 nM | 53 nM | CCCCOc1ccc(C2=C(c3cn(CCCn4cncc4C)c4ccccc34)C(=O)NC2=O)cc1
